ChEMBL document CHEMBL1201862, “PubChem BioAssay data set” (2004)
Active and inactive are the calls of the source.

Key:
[1] = ATP-based viability loss in HEK293T cells – cell-based, CellTiter-Glo luminescence, dry powder, set 2, cytotoxicity control, dose response (AID 720595); type: functional; settings: HEK293
[2] = ATP-based viability loss in HeLa cells – cell-based, CellTiter-Glo luminescence, dry powder, set 2, cytotoxicity control, dose response (AID 720593); type: functional
[3] = blockers of HIV-1 envelope-mediated cell-cell fusion – cherry-pick, dose response (AID 652057); type: functional, cell-based
[4] = blockers of HIV-1 ZM109 envelope-driven cell-cell fusion – HeLa effector, CEM target cells, luciferase, cherry-pick, dose response (AID 652058); type: functional, cell-based;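 further: luciferase signal from HIV-1 Env mediated cell-cell fusion of effector and target cells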
[5] = inhibition of Env-driven cell fusion – HIV entry, plate reader, dry powder, dose response (AID 687023); type: functional, cell-based
[6] = target: Paired box protein Pax-8 (Homo sapiens, UniProt Q06710); experiment: PAX8 transcriptional activity inhibition in RMG-I – RMG-I cells, luciferase, cherry-pick, dose response (AID 687027); type: functional, cell-based;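 further: luciferase reporter driven by Pax8 target thyroperoxidase promoter measured by SteadyGlo luminescence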
[7] = A2780 cell killing – plate reader, dry powder samples, cytotoxicity control, dose response (AID 743046); type: functional, cell-based
[8] = OVCAR8 cell viability loss – plate reader, dry powder samples, PAX8 project, dose response (AID 743197); type: functional, cell-based; settings: OVCAR-8
[9] = inhibitors acting on PAX2 in cells – cell-based, plate reader, dry powder samples, selectivity assay for PAX8 inhibitor project, dose response (AID 743048); type: functional;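 further: HEK293 cells carrying a WT1 promoter luciferase reporter driven by expressed Pax2; potency is for inhibition of Pax2 driven reporter signal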
[10] = toxicity toward immortalized ovarian surface epithelium – cell-based, plate reader, dry powder samples, cytotoxicity control for PAX8 inhibitor project, dose response (AID 743045); type: functional
[11] = OVCAR-3 cell viability loss – plate reader, dry powder samples, PAX8 inhibitor project, dose response (AID 743044); type: functional, cell-based
[12] = PAX5 cellular inhibition readout – cell-based, plate reader, dry powder samples, selectivity assay for PAX8 inhibitor project, dose response (AID 743047); type: functional;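 further: HEK293 cells carrying a Pax5 driven CD19 promoter luciferase reporter; potency of inhibitors that lower reporter luminescence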
[13] = IGROV1 cell killing – plate reader, dry powder samples, PAX8 inhibitor project, dose response (AID 743043); type: functional, cell-based; settings: IGROV-1
[14] = COV434 cell viability loss – plate reader, dry powder, SA7, cytotoxicity control for PAX8 inhibitor project, dose response (AID 743145); type: functional, cell-based
[15] = OV-90 cell viability loss – plate reader, dry powder, SA8, PAX8 inhibitor project, dose response (AID 743149); type: functional, cell-based
[16] = PAX8-dependent cell viability loss – plate reader, dry powder, dose response (AID 743049); type: functional, cell-based
[17] = HepG2 hepatoma cell viability loss – plate reader, dry powder, cytotoxicity control, dose response (AID 651947); type: functional, cell-based
[18] = T. cruzi growth inhibition in host cells, dose response, cell-based, plate reader, dry powder, set 2 (AID 652275); type: functional
[19] = Trypanosoma cruzi replication inhibitors in host cells – cell-based, plate reader, dry powder samples, dose response (AID 651845); type: functional
[20] = anti-trypanosomal activity in BESM host cells – imaging, CA-I/72 strain, bovine embryo skeletal muscle, dry powder, dose response (AID 651885); type: functional, cell-based

Sequence of Paired box protein Pax-8 (Q06710 whole entry): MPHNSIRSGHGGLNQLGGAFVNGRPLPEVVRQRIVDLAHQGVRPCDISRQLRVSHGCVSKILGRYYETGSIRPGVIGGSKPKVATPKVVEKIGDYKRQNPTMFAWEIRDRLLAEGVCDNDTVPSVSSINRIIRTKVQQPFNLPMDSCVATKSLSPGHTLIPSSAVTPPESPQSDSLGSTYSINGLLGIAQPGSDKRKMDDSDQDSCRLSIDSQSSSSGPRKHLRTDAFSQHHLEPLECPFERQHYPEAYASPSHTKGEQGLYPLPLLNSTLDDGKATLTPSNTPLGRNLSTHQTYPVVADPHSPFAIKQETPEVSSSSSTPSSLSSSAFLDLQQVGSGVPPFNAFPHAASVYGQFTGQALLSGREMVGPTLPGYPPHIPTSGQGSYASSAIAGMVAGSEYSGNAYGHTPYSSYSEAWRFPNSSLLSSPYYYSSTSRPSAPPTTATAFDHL

O=C(Cc1ccccc1)NC(c1ccco1)c1ccc2cccnc2c1O (configuration not stated)
AC50 [1]: 2.56 µM (active) | AC50 [2]: 18.1 µM (active)

Cc1noc(C)c1S(=O)(=O)Nc1cccc2c1O[C@H](CN(C)Cc1ccc(C(F)(F)F)cc1)[C@H](C)CN([C@H](C)CO)C2=O
AC50 [3]: 0.731 µM (active) | AC50 [4]: 0.935 µM (active) | AC50 [5]: 2.42 µM (active)

C[C@H](CO)N1C[C@H](C)[C@@H](CN(C)Cc2ccc(Cl)c(Cl)c2)OCCCC[C@H](C)Oc2ccc(NS(=O)(=O)c3ccc(Cl)cc3)cc2C1=O
AC50 [6]: 11.5 µM (active) | AC50 [7]: 4.46 µM (active) | AC50 [8]: > 70 µM (inactive)

O=C(C[C@@H]1C[C@H]2c3cc(NS(=O)(=O)c4ccc(F)cc4)ccc3O[C@H]2[C@H](CO)O1)NCc1ccc(Cl)cc1
AC50 [6]: 5.93 µM (active) | AC50 [9]: 34.3 µM (active) | AC50 [10]: 19.8 µM (active) | AC50 [11]: 16.1 µM (active) | AC50 [12]: 28.1 µM (active) | AC50 [13]: 43 µM (active) | AC50 [14]: 0.000676 µM (active) | AC50 [15]: 19.1 µM (active) | AC50 [8]: 25.8 µM (active) | AC50 [16]: 45.7 µM (active)

FC(F)(F)c1ccccc1CSc1nnc(-c2ccccc2)o1
AC50 [17]: 23.1 µM (active)

CC(C)N1C[C@@H](C)[C@H](CN(C)Cc2ccc(Oc3ccccc3)cc2)Oc2c(cccc2N(C)C(=O)c2ccncc2)C1=O
AC50 [18]: 0.262 µM (active) | AC50 [19]: 0.262 µM (active) | IC50 [20]: 10 µM (inconclusive)
